SMILES strings stand for the structures.

The nature of this series: gradient 5% acetonitrile 3 min, to 50% in 2 min, to 85% in 15 min, held 3 min, 100 µL/min. To be noted: column: Zorbax Extend-C18 2.1 x 50 mm; eluents: water / acetonitrile, 0.1% formic acid. An outline of the steps: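 Retention times come from adduct peaks that were picked computationally and then checked by hand. The standards, pure and pooled in mixtures of ~100 molecules, were run on a Zorbax Extend-C18 column (2.1 × 50 mm, 1.8 μm) at 100 μL/min with water and acetonitrile, each with 0.1% formic acid. Detection was by quadrupole time-of-flight mass spectrometry in positive and negative ionization mode, with a dead volume of 40 μL and a dwell volume of 900 μL.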
In turn, `CC1CCCN(S(=O)(=O)c2ccc(-n3cnc(C(=O)N4CCN(C)CC4)c3)nc2)C1` (stereo not given) came in with an RP-LC retention time of 648 s. For `CC(C)c1cc(C2CCCN2C(=O)NC(C)(C)C)on1` (stereo not given) the value was 835 s.

Compound `CCOC(=O)c1c(C)[nH]c(C(=O)N2CCCC(C(=O)NCc3ccccc3OC)C2)c1C` (stereo not given) registered an RP-LC retention time of 785 s.

In turn, `COc1ccc(S(=O)(=O)Nc2cc(-c3cn4ccc(C)cc4n3)ccc2C)cc1OC` gave an RP-LC retention time of 652 s. As for `CNc1nc(Nc2ccccc2)nc2ccccc12`, the RP-LC retention time worked out at 633 s. In the case of `Cc1ccc(CNC(=O)C2CCCCC(=O)N2)o1` (stereo not given), the RP-LC retention time came out at 636 s.

Compound `O=C(NCC1CCCO1)C1CCN(C(=O)c2ncn3c2COC(c2ccccc2)C3)CC1` (stereo not given) yielded an RP-LC retention time of 649 s. For `Cc1nn2c(CNC(=O)c3n[nH]c4c3CCCC4)c(-c3ccccc3)nc2s1` the value was 784 s.

`CCN1CCCC1CN(CC(=O)N1CCNCC1)S(=O)(=O)c1cc(C)c(C)cc1C` (stereo not given) displayed an RP-LC retention time of 588 s. For `CN(C)CCNC(=O)c1cc(S(=O)(=O)N2CCOCC2)ccc1Cl` the value was 563 s. As for `O=C(NCC1CCOCC1)Nc1cccc(F)c1`, the figure is 698 s; as for `Cc1ccc(-n2nc3c(N4CCCC(C(=O)NCc5ccccc5Cl)C4)nnc(C)c3c2C)cc1` (stereo not given), 804 s. For `O=[N+]([O-])c1ccc(-c2cn3ccccc3n2)cc1` the value was 598 s; for `CS(=O)(=O)Oc1ccc(Br)c2cccnc12`, 889 s. Consider `O=C1CC(c2nc(-c3ccccc3F)no2)CN1c1ccc2c(c1)OCCO2` (stereo not given), for which the RP-LC retention time came to 860 s. As for `CCOC1CCN(C(=O)NC(C)C)CC1`, the figure is 630 s; as for `COc1ccccc1-c1nc(-c2ccc(S(=O)(=O)N3CCC(C)CC3)cc2)no1`, 1290 s; as for `Cc1cc(N2CCN(S(=O)(=O)c3cccc(Cl)c3)CC2)nc(NC2CCCCC2)n1`, 844 s. With `COc1ccc(Cc2cnc(NC(=O)C3Cc4ccccc4C(=O)O3)s2)cc1` (stereo not given), the RP-LC retention time stood at 819 s. Regarding `COc1ccc(OC)c(S(=O)(=O)NC2CCCN(c3ccc(=O)n(C)n3)C2)c1` (stereo not given), the RP-LC retention time is 702 s. For `Cn1c(C(=O)NCc2ccccc2)cc2sccc21` the value was 892 s.

`COc1cc(OC)c(NC(=O)CSc2nccnc2N2CCSCC2)cc1Cl` displayed an RP-LC retention time of 1020 s.

The compound `O=S(=O)(c1cccc(Cl)c1)N1CCc2nc(-c3ccccc3)ncc2C1` registered an RP-LC retention time of 1170 s. Take `CCCN1CCN(C(=O)CC(c2cc(OC)c(OC)c(OC)c2)N2Cc3ccccc3C2=O)CC1` (stereo not given): the RP-LC retention time was determined as 626 s.

`Cc1nc(-c2cc(S(=O)(=O)NCc3ccccc3Cl)c(C)s2)cs1` registered an RP-LC retention time of 1080 s. As for `CN(CC1CCOCC1)S(=O)(=O)Cc1ccccc1`, the figure is 787 s; as for `Cc1cc(C(=O)Nc2c3c(nn2-c2ccccc2)CCC3)nn1C`, 733 s; as for `Cc1cccc(S(=O)(=O)N2CCCC(C)(C(=O)NCc3cccc(F)c3)C2)c1` (stereo not given), 972 s.

With `CCCN1CCO[C@@H]2c3cc(O)ccc3OC[C@H]21`, the RP-LC retention time turned out to be 645 s. As for `Cc1ccc(CNC(=O)C2CCN(c3nnc(C)c4c(C)n(-c5ccccc5)nc34)CC2)o1`, the figure is 710 s; as for `Cc1nc(C2CN(S(=O)(=O)c3c(C)c(C)cc(C)c3C)CC23CCOCC3)no1` (stereo not given), 1020 s. For `CCC(=O)Nc1ccc(C2(C(=O)O)CCC2)cc1` the value was 673 s; for `COc1ccc(-c2noc(N3CCC(N4CCCCC4)CC3)n2)cc1OC`, 590 s; for `Cc1ccccc1CNC(=O)C1(C)CCCN(C(=O)Nc2ccccc2C(F)(F)F)C1` (stereo not given), 1010 s.

As for `CCc1cccc(NC(=O)N2CCCC2c2nncn2C2CCCC2)c1` (stereo not given), the RP-LC retention time turned out to be 742 s.

As to `Cc1oc2ncnc(N3CCCCC3)c2c1C(=O)N1CCN(c2ccccn2)CC1`, the RP-LC retention time stood at 591 s.

Consider `CC(Oc1ccccc1)C(=O)N1CCN(c2nc(CN3CCOCC3)cs2)CC1` (stereo not given), for which the RP-LC retention time was determined as 621 s. For `CNC(=O)c1sc(-c2ccc(C)cc2)nc1C` the value was 785 s; for `Cc1ccc2nc(NC(=O)CSc3ccc(-n4cccn4)nn3)sc2c1`, 844 s. For `Cc1ccc(-n2cccc2CC(=O)NCc2ccc3c(c2)OCO3)cc1` the value was 946 s; for `COc1cccc(C(=O)N2CCCC(c3nnc(-c4ccccc4)o3)C2)c1` (stereo not given), 822 s; for `Cc1cccc(NC(=O)C2CCCN(c3nc4ccsc4c(=O)n3-c3cccc(C)c3)C2)c1` (stereo not given), 1020 s.

Take `O=C(c1ccsc1)N1CCN(c2nnc3ccc(C(F)(F)F)cn23)CC1`: the RP-LC retention time is 718 s.

`COc1ccccc1C(=O)Nc1cnc(N2CCCC2)nc1` displayed an RP-LC retention time of 731 s. For `Cc1[nH]c(C)c(S(=O)(=O)N2CCC(C(=O)NC3CCC(C)CC3)CC2)c1C(=O)N1CCCCC1` (stereo not given) the value was 778 s. For `COc1ccc(-c2nc(-c3ccc4c(c3)oc(=O)n4C(C)C)no2)cc1` the value was 1070 s; for `CN(CC1(C)CCOCC1)C(=O)CCc1c[nH]c2ccccc12`, 772 s. `O=C(NCc1ccccc1F)C1CCN(C(=O)c2ncn3c2COC(c2ccc(Cl)cc2)C3)CC1` (stereo not given) registered an RP-LC retention time of 819 s. `Cc1noc(C)c1C1CCCN1C(=O)Cc1ccccc1F` (stereo not given) had an RP-LC retention time of 736 s. As for `O=C(Cn1cccc(-c2nc(-c3ccc(Cl)cc3)no2)c1=O)NC1CCCC1`, the figure is 881 s. For `COc1nc2ccccc2nc1N1CCCC(C(=O)Nc2ccc(Br)c(C)c2C)C1` (stereo not given) the value was 1260 s; for `COC(=O)c1ccccc1NC(=O)N(Cc1cc(=O)[nH]c2ccccc12)CC(C)C`, 943 s; for `CCc1nc(-c2cccc(-c3noc(CNS(=O)(=O)c4ccc(Cl)cc4)n3)c2)cs1`, 1130 s.

In turn, `O=C(NCCCn1nc(-c2ccncc2)ccc1=O)c1ccc2c(c1)OCO2` had an RP-LC retention time of 555 s. For `Cc1ccccc1-c1noc(Cn2cnc3c(cnn3-c3ccc(Br)cc3)c2=O)n1` the value was 1200 s; for `Fc1ccc(C2Cn3nnc(-c4nc(-c5ccccc5)no4)c3CO2)cc1` (stereo not given), 1120 s. For `O=C(Nc1nnc(SCc2cccnc2)s1)c1cc(C2CC2)on1` the value was 598 s; for `CCOCCOC(=O)c1ccc(NC(=O)C(C)(C)C)cc1`, 815 s.

`Cc1cccc(Nc2c(-c3ccc(Br)cc3)nc3cnccn23)c1C` displayed an RP-LC retention time of 1140 s. As for `O=C(Cn1c(C(F)(F)F)nc2cc3c(cc21)OCCO3)NCc1ccc(Cl)cc1`, the figure is 885 s; as for `O=C(Nc1ccc(F)cc1)N1CCCC(Cn2c(C3CC3)nc3cccnc32)C1` (stereo not given), 675 s. With `CCCc1nnc(-c2cccnc2N2CCN(C(=O)c3ccc4ncccc4c3)CC2)o1`, the RP-LC retention time came out at 660 s.

Turning to `Cc1ccc(-c2cc3n(n2)CCCN(C(=O)c2ccoc2)C3)cc1`, the RP-LC retention time came out at 810 s. As for `CNC(=O)N1CCCC(c2cccc(C(=O)NCc3ccc(N(C)C)cc3)c2)C1` (stereo not given), the figure is 607 s; as for `CC1(C(=O)NCc2ccccc2)Cn2cnc(C(=O)N3CCc4ccccc43)c2C(=O)N1C1CC1` (stereo not given), 720 s; as for `CC(C)(C)C(=O)N[C@H](Cc1ccccc1)C(=O)NCc1cscn1`, 714 s.

In the case of `CC(C)Cn1cc(S(=O)(=O)Nc2cccc(F)c2)c2cccnc21`, the RP-LC retention time amounted to 912 s. As for `CCc1nc2cc(-c3noc(C(C)NC(=O)c4ccccc4)n3)ccc2o1` (stereo not given), the figure is 916 s; as for `Cc1ccc(-c2noc(Cn3c(=O)n(-c4ccccc4C)c(=O)c4sccc43)n2)cc1C`, 1110 s; as for `CC(C)n1cnc(S(=O)(=O)N2CCC(C(=O)Nc3ccc(F)cc3)CC2)c1`, 740 s. Take `CC(=O)NCCc1csc(C2CCN(C(=O)C3CCC3)CC2)n1`: the RP-LC retention time turned out to be 625 s. For `Cc1cc2[nH]c(C(=O)Nc3cc(F)c(F)cc3F)c(CN3CCCC3)c2s1` the value was 864 s; for `CCN1C(=O)CCc2cc(NS(=O)(=O)c3ccc(C(F)(F)F)cc3)ccc21`, 858 s; for `Cc1ccc(CN2CCN(CC(=O)N3CCN(Cc4ccccc4)CC3)C(=O)C2=O)cc1`, 640 s. As for `Cc1cccc(N2CCN(c3cc(C(=O)O)c4cc(NC(=O)C5CCC5)ccc4n3)CC2)c1C`, the figure is 777 s; as for `O=C(Nc1ccc2c(c1)OCCO2)N1CCCC(c2nn[nH]n2)C1` (stereo not given), 634 s. For `O=C(c1cc(F)ccc1Cl)N1CCN(C(=O)c2nnn3c2COC(c2ccccc2)C3)CC1` (stereo not given) the value was 894 s. On to `CC1(C)CC(=O)c2cc3c(N)c(C(=O)Nc4ccccc4[N+](=O)[O-])sc3nc2C1`, for which the RP-LC retention time came out at 1100 s. `COc1ccc(-c2nc(N(CCCN3CCOCC3)Cc3ccco3)c3ccccc3n2)cc1` had an RP-LC retention time of 588 s. For `CN(C(=O)C1CCN(S(=O)(=O)c2ccc3c(c2)sc(=O)n3C)CC1)C1CCCCC1` the value was 910 s.

(Values after the METLIN SMRT retention time set (Domingo-Almenara et al. 2019).)
